The test deals with streptozotocin diabetic rats. In words: In-vivo efficacy screening in streptozotocin diabetic Sprague Dawley rats, 35 days oral gavage. An excerpt:
The number of animals per dose group is five and is kept for examination and acclimatization for a week period at the start of the study. The total number of dose groups is six along with vehicle control. The different groups are G1-Vehicle control, G2-Diabetic control, G-3 Diabetic animals treated with Pioglitazone (Standard anti-diabetic drug). […] Blood is collection under CO2 anesthesia by retro orbital (ROP) plexus method and FBG analysis. Rats are fed with 5% glucose water for two days before STZ injection and are fasted for 12 hours before administering streptozotocin. The rats are injected intra-peritoneal with 45 mg/kg-body weight of streptozotocin in a citrate buffer ph: 4.5 and allowed for week recovery. Rats are fasted for 12 hours after 7th day of STZ injection and blood collected in heparin as the anti-coagulant, under CO2 anesthesia and analyzed for FBG. Rats that have the range of FBG beyond 250 mg/dl and above are considered for the study.
Selection, randomization and grouping of the animals into different treatment groups with the FBG range of 250 mg/dl is undertaken as above. […] The dosage volume administered to individual rat was adjusted according to its most recently recorded body weights. […] All signs of ill health, together with any behavioral changes or reaction to treatment are recorded for individual animals. […]

Turning to `COc1ccc(Cl)cc1C(=O)NCCc1ccc(S(=O)(=O)NC(=O)NC2CCCCC2)cc1` [glebenclamide], for the setting “glebenclamide, dose not stated”, the “increase in fasting blood glucose from baseline at the end of 35 days” value was “about 110%”.

On to `CCc1ccc(CCOc2ccc(CC3SC(=O)NC3=O)cc2)nc1` (centres unmarked) [pioglitazone], for which the “increase in fasting blood glucose from baseline at the end of 35 days” value (pioglitazone 20 mg/kg-body weight) is recorded as “about 98%”.

The values above are taken from patent US20110064833A1, “SYNERGISTIC HERBAL COMPOSITION AND PROCESS OF PREPARATION THEREOF” (priority 2007, published 2011).
